Values quoted from earlier work, collected in PMC10423561, “Effects of the CYP3A inhibitors, voriconazole, itraconazole, and fluconazole on the pharmacokinetics of osimertinib in rats” (PeerJ, 2023).
Like-named read-outs stand apart in the source and are kept apart here.

Tests used:
[1] = design: method as in Fu et al., 2023; details: ref Fu et al., 2023, cited from earlier work
[2] = tested on: CYP3A; details: CYP3A probe substrate; inhibitor not stated; ref Uchida, Tanaka & Namiki, 2014; cited from earlier work

Structure (SMILES)	increase in systemic exposure of almonertinib ([1]; with FCZ) [fold]	increase in systemic exposure of almonertinib ([1]; with VCZ) [fold]	increase in AUC0–360 of midazolam [2] [%]
C=CC(=O)Nc1cc(Nc2nccc(-c3cn(C4CC4)c4ccccc34)n2)c(OC)cc1N(C)CCN(C)C [almonertinib]	3.4	2.7	
Cc1ncc2n1-c1ccc(Cl)cc1C(c1ccccc1F)=NC2 [midazolam]			133
